Reference: patent publication US20240336658A1, “CYCLIC PEPTIDE AND PREPARATION METHOD AND USE THEREOF” (HANGZHOU HUIBO SCIENCE AND TECHNOLOGY CO., LTD, priority 2021, published 2024)

Tests used:
[1] = Solubility of prepared cyclic peptide; assay type: physicochemical
[2] = test system: full-thickness skin defect wound surfaces; test: Effects of cyclic peptide Hst1 on wound repair in mice (Example 10): healing rate, HE/Masson histology, CD31/VEGF immunohistochemistry; assay type: in vivo, C57 BL/6 mice; conditions: day 10, Masson staining; 0.1 μM Click-Histatin1, 0.1 μM Sortase A-cyclic histatin1, 10 μM Histatin1
Experimental: This example adopted the propargylglycine-Hst1 cyclic peptide (Click-Histatin1) provided in Example 1, a cyclized Hst1 (Sortase A-cyclic histatin1) prepared by the Sortase A enzymatic method provided in Example 4, and a linear peptide Hst1 (Histatin1) to conduct animal experiments to observe the effect of the propargylglycine-Hst1 on the healing rates of the wound surfaces of mice. The concentration of the linear peptide Hst1 was 10 μM, the concentration of the propargylglycine-Hst1 cyclic peptide was 0.1 μM, and the concentration of the cyclized Hst1 prepared by the Sortase A enzymatic method was each 0.1 μM. 12 healthy male special pathogen-free grade C57 BL/6 mice (purchased from Guangdong Experimental Animal Center) of 6-8 weeks old and weighing 22-28 g. They were intraperitoneally injected with 5 ml/kg of 1% pentobarbital sodium for anesthesia. After the mice had no corneal reflex, the hair on their backs was carefully removed and disinfected with alcohol. […] full-thickness skin defect wound surfaces were prepared on the back of each mouse by using a circular skin punch. The 12 mice were divided into a Control (blank) group with 3 mice, a 10 μM linear peptide Hst1 (Histatin1) group with 3 mice, a 0.1 μM propynylglycine-Hst1 cyclic peptide (Click-Histatin1) group with 3 mice, and a 0.1 μM cyclized Hst1 prepared by a Sortase A enzymatic method (Sortase A-cyclic histatin1) group with 3 mice, according to a random number table method. Each wound surface was added with 0.5 ml of four drugs respectively, and administration was conducted every day until the wound surfaces of the experimental groups healed. Photographs were taken on days 0, 3, 5, 7, and 10 after surgery, and wound tissues were sampled on day 10 for subsequent pathological staining. On days 0, 3, 5, 7, and 10 after injury, the general condition of wound healing of the mice was observed and photographed with a digital camera (see FIG. 4), and the wound healing rate was calculated (see FIG. 5). Wound healing rate=(wound area immediately after injury−unhealed wound area at each time point)[…]wound area immediately after injury×100%. The wound specimens were fixed in 4% paraformaldehyde for 48 hours, rinsed with tap water for 10 minutes, dehydrated with graded ethanol, permeabilized with xylene, and embedded in paraffin to prepare 4 μm thick sections. Some sections were taken for HE staining and Masson staining, and observed for the thickness of the granulation tissue, the length of the dermal gap, and the newly grown collagen of the wound surface under an inverted fluorescence microscope at 40×, 100×, 200×, and 400× respectively (see FIGS. 6 and 7). 5 sections were taken from each mouse, and 5 fields of view were selected for each section. Data analysis was performed using the software Image-pro Plus. […] It was added with a rabbit anti-mouse CD31 primary antibody (with a dilution ratio of 1:300) and a mouse anti-VEGF (with a dilution ratio of 1:100), incubated overnight at 4° C., and washed with PBS. […] It was subjected to DAB development, hematoxylin counterstaining. gradient ethanol dehydration, xylene permeabilization, and resin blocking. 5 sections were taken from each mouse, and 5 fields of view were selected for each section. The sections were observed under a 400× inverted fluorescence microscope, and analyzed for the number of CD31-positive blood vessels (see FIG. 8) and VEGF expression amounts (see FIG. 9, shown in brown) by using Image-pro Plus software. The measurement data were expressed by M±SD, and the data were analyzed by one-way analysis of variance (ANOVA) and an independent samples T-test with SPSS 20.0 software to detect whether the differences among the groups were statistically significant, and a Bonferroni test was used for pairwise comparison. *p<0.05. **p<0.01. ***p<0.001 meant the difference was statistically significant, and p>0.05 was not statistically significant.

fibroblasts (NIH/3T3) = test: Scratching experiment, Hst1 cyclic peptides (Examples 11 and 12); assay type: cell-based; conditions: dosage needed to achieve the same pharmaceutical effect in the scratch experiment
Experimental: At the same time, fibroblasts (NIH/3T3; GNM 6; Chinese Academy of Sciences, China) were plated into a 6-well plate at a number of 2×10^6/well and cultured to a density of 70-80%. The cells were starved for 8-12 hours before the experiment. Mitomycin C (Sigma Aldrich, USA) was added into the culture medium to make its concentration in the culture medium be 15 μg/ml, and the culture medium was changed after 3 hours of treatment. Scratching was conducted with a 200 μl pipette tip perpendicular to the bottom of the well-plate with the same force, and the well-plate was rinsed with PBS twice after scratching. Each well was added with an appropriate amount of a DEME medium (10% FBS, 1% double antibody), and except for the blank control group, each well was added with 10 μM of the linear Hst1, 0.01 μM of the propynylglycine-Hst1 cyclic peptide, 0.1 μM of the propynylglycine-Hst1 cyclic peptide and 1 μM of the propynylglycine-Hst1 cyclic peptide as experimental groups. At 0 hour, the cells in each group were photographed by using a microscope (Olympus, Japan). […] The scratched area of each group was calculated by using imageJ (Rawak Software, Inc. Germany) software, and the scratch area at 0 hour was an initial scratch area. The scratch healing rate was calculated as follows: […]

## Sortase A-cyclic histatin1: cyclized Hst1 prepared by the literature Sortase A enzymatic method (Bolscher, FASEB Journal) (DSHEKRHHGYRRKFHEKHHSHREFPFYGDYGSNYLYDN; Histatin-1 cyclized via sortase A; UniProt P15515 20-57, looked up) [reference compound]
[1]
  solubility: poor solubility
[2]
  expression amount of collagen at the wound surfaces: significantly higher than that of the Control group
Fibroblasts (NIH/3T3)
  Dosage of agents required for scratch test: 0.12 µM
